According to ChEMBL document CHEMBL3352350, “Syntheses and structure-activity relationships in cytotoxicities of 13-substituted quaternary coptisine derivatives” (Eur J Med Chem, 2014):

System: not listed separately
Assay: Cytotoxicity against human Bel7402 cells assessed as growth inhibition rate at 0.1 to 100 umol/L after 96 hrs by MTT assay
Format: functional, Bel-7402
Conditions: not given

SMILES | growth inhibition (GI) [%]
CCCCCCCCCCc1c2[n+](cc3c4c(ccc13)OCO4)CCc1cc3c(cc1-2)OCO3.[Cl-] | 89.98
CCCCCCCCCCCCc1c2[n+](cc3c4c(ccc13)OCO4)CCc1cc3c(cc1-2)OCO3.[Cl-] | 87.63
N#Cc1ccc(Cc2c3[n+](cc4c5c(ccc24)OCO5)CCc2cc4c(cc2-3)OCO4)cc1.[Cl-] | 4.03
O=[N+]([O-])c1ccc(Cc2c3[n+](cc4c5c(ccc24)OCO5)CCc2cc4c(cc2-3)OCO4)cc1.[Cl-] | -0.12
COc1ccc(Cc2c3[n+](cc4c5c(ccc24)OCO5)CCc2cc4c(cc2-3)OCO4)cc1.[Cl-] | 5.99
Cc1ccc(Cc2c3[n+](cc4c5c(ccc24)OCO5)CCc2cc4c(cc2-3)OCO4)cc1.[Cl-] | 12.33
[Cl-].c1ccc2cc(Cc3c4[n+](cc5c6c(ccc35)OCO6)CCc3cc5c(cc3-4)OCO5)ccc2c1 | 11.78
CCOC(=O)c1c2[n+](cc3c4c(ccc13)OCO4)CCc1cc3c(cc1-2)OCO3.[Cl-] | 4.05
CCOC(=O)Cc1c2[n+](cc3c4c(ccc13)OCO4)CCc1cc3c(cc1-2)OCO3.[Cl-] | 8.43
[Cl-].c1c2c(cc3c1OCO3)-c1cc3ccc4c(c3c[n+]1CC2)OCO4 [COPTISINE CHLORIDE] | 12.24
O=c1[nH]cc(F)c(=O)[nH]1 [FLUOROURACIL] | 78.43

System: not listed separately
Assay: Cytotoxicity against human HCT8 cells assessed as growth inhibition rate at 0.1 to 100 umol/L after 96 hrs by MTT assay
Format: functional, HCT-8
Conditions: not given

SMILES | growth inhibition (GI) [%]
CCCCCCCCCCc1c2[n+](cc3c4c(ccc13)OCO4)CCc1cc3c(cc1-2)OCO3.[Cl-] | 71.93
CCCCCCCCCCCCc1c2[n+](cc3c4c(ccc13)OCO4)CCc1cc3c(cc1-2)OCO3.[Cl-] | 91.28
N#Cc1ccc(Cc2c3[n+](cc4c5c(ccc24)OCO5)CCc2cc4c(cc2-3)OCO4)cc1.[Cl-] | 3.69
O=[N+]([O-])c1ccc(Cc2c3[n+](cc4c5c(ccc24)OCO5)CCc2cc4c(cc2-3)OCO4)cc1.[Cl-] | -3.7
COc1ccc(Cc2c3[n+](cc4c5c(ccc24)OCO5)CCc2cc4c(cc2-3)OCO4)cc1.[Cl-] | 10.21
Cc1ccc(Cc2c3[n+](cc4c5c(ccc24)OCO5)CCc2cc4c(cc2-3)OCO4)cc1.[Cl-] | 15.16
[Cl-].c1ccc2cc(Cc3c4[n+](cc5c6c(ccc35)OCO6)CCc3cc5c(cc3-4)OCO5)ccc2c1 | 8.33
CCOC(=O)c1c2[n+](cc3c4c(ccc13)OCO4)CCc1cc3c(cc1-2)OCO3.[Cl-] | 4
CCOC(=O)Cc1c2[n+](cc3c4c(ccc13)OCO4)CCc1cc3c(cc1-2)OCO3.[Cl-] | -9.3
[Cl-].c1c2c(cc3c1OCO3)-c1cc3ccc4c(c3c[n+]1CC2)OCO4 [COPTISINE CHLORIDE] | 62.06
O=c1[nH]cc(F)c(=O)[nH]1 [FLUOROURACIL] | 80.36

System: A549
Assay: Cytotoxicity against human A549 cells assessed as growth inhibition rate at 0.1 to 100 umol/L after 96 hrs by MTT assay
Format: functional
Conditions: not given

SMILES | growth inhibition (GI) [%]
CCCCCCCCCCc1c2[n+](cc3c4c(ccc13)OCO4)CCc1cc3c(cc1-2)OCO3.[Cl-] | 75.26
CCCCCCCCCCCCc1c2[n+](cc3c4c(ccc13)OCO4)CCc1cc3c(cc1-2)OCO3.[Cl-] | 94.03
N#Cc1ccc(Cc2c3[n+](cc4c5c(ccc24)OCO5)CCc2cc4c(cc2-3)OCO4)cc1.[Cl-] | 2
O=[N+]([O-])c1ccc(Cc2c3[n+](cc4c5c(ccc24)OCO5)CCc2cc4c(cc2-3)OCO4)cc1.[Cl-] | 2.27
COc1ccc(Cc2c3[n+](cc4c5c(ccc24)OCO5)CCc2cc4c(cc2-3)OCO4)cc1.[Cl-] | 11.53
Cc1ccc(Cc2c3[n+](cc4c5c(ccc24)OCO5)CCc2cc4c(cc2-3)OCO4)cc1.[Cl-] | 26.58
[Cl-].c1ccc2cc(Cc3c4[n+](cc5c6c(ccc35)OCO6)CCc3cc5c(cc3-4)OCO5)ccc2c1 | 32.22
CCOC(=O)c1c2[n+](cc3c4c(ccc13)OCO4)CCc1cc3c(cc1-2)OCO3.[Cl-] | 9.7
CCOC(=O)Cc1c2[n+](cc3c4c(ccc13)OCO4)CCc1cc3c(cc1-2)OCO3.[Cl-] | 1.25
[Cl-].c1c2c(cc3c1OCO3)-c1cc3ccc4c(c3c[n+]1CC2)OCO4 [COPTISINE CHLORIDE] | 49.91
O=c1[nH]cc(F)c(=O)[nH]1 [FLUOROURACIL] | 72.25

System: not listed separately
Assay: Cytotoxicity against human C33A cells assessed as growth inhibition rate after 96 hrs by MTT assay
Format: functional, cell-based
Conditions: C-33-A

SMILES | IC50 [µM]
CCCCCCCCCCc1c2[n+](cc3c4c(ccc13)OCO4)CCc1cc3c(cc1-2)OCO3.[Cl-] | 4.31
CCCCCCCCCCCCc1c2[n+](cc3c4c(ccc13)OCO4)CCc1cc3c(cc1-2)OCO3.[Cl-] | 1.43
[Cl-].c1c2c(cc3c1OCO3)-c1cc3ccc4c(c3c[n+]1CC2)OCO4 [COPTISINE CHLORIDE] | > 14.1
O=c1[nH]cc(F)c(=O)[nH]1 [FLUOROURACIL] | 4.61

System: A549
Assay: Cytotoxicity against human A549 cells assessed as growth inhibition rate after 96 hrs by MTT assay
Format: functional, cell-based
Conditions: A549, 96 h

SMILES | IC50 [µM]
CCCCCCCCCCc1c2[n+](cc3c4c(ccc13)OCO4)CCc1cc3c(cc1-2)OCO3.[Cl-] | 1.83
CCCCCCCCCCCCc1c2[n+](cc3c4c(ccc13)OCO4)CCc1cc3c(cc1-2)OCO3.[Cl-] | 0.59
N#Cc1ccc(Cc2c3[n+](cc4c5c(ccc24)OCO5)CCc2cc4c(cc2-3)OCO4)cc1.[Cl-] | > 10
O=[N+]([O-])c1ccc(Cc2c3[n+](cc4c5c(ccc24)OCO5)CCc2cc4c(cc2-3)OCO4)cc1.[Cl-] | > 10
COc1ccc(Cc2c3[n+](cc4c5c(ccc24)OCO5)CCc2cc4c(cc2-3)OCO4)cc1.[Cl-] | > 10
Cc1ccc(Cc2c3[n+](cc4c5c(ccc24)OCO5)CCc2cc4c(cc2-3)OCO4)cc1.[Cl-] | > 10
[Cl-].c1ccc2cc(Cc3c4[n+](cc5c6c(ccc35)OCO6)CCc3cc5c(cc3-4)OCO5)ccc2c1 | > 10
CCOC(=O)c1c2[n+](cc3c4c(ccc13)OCO4)CCc1cc3c(cc1-2)OCO3.[Cl-] | > 10
CCOC(=O)Cc1c2[n+](cc3c4c(ccc13)OCO4)CCc1cc3c(cc1-2)OCO3.[Cl-] | > 10
[Cl-].c1c2c(cc3c1OCO3)-c1cc3ccc4c(c3c[n+]1CC2)OCO4 [COPTISINE CHLORIDE] | > 14.1
O=c1[nH]cc(F)c(=O)[nH]1 [FLUOROURACIL] | 6.69

System: not listed separately
Assay: Cytotoxicity against human C33A cells assessed as growth inhibition rate at 0.1 to 100 umol/L after 96 hrs by MTT assay
Format: functional, C-33-A
Conditions: not given

SMILES | growth inhibition (GI) [%]
CCCCCCCCCCc1c2[n+](cc3c4c(ccc13)OCO4)CCc1cc3c(cc1-2)OCO3.[Cl-] | 61.31
CCCCCCCCCCCCc1c2[n+](cc3c4c(ccc13)OCO4)CCc1cc3c(cc1-2)OCO3.[Cl-] | 84.73
[Cl-].c1c2c(cc3c1OCO3)-c1cc3ccc4c(c3c[n+]1CC2)OCO4 [COPTISINE CHLORIDE] | -10.71
O=c1[nH]cc(F)c(=O)[nH]1 [FLUOROURACIL] | 56.06

System: not listed separately
Assay: Cytotoxicity against human HCT8 cells assessed as growth inhibition rate after 96 hrs by MTT assay
Format: functional, cell-based
Conditions: HCT-8, 96 h

SMILES | IC50 [µM]
CCCCCCCCCCc1c2[n+](cc3c4c(ccc13)OCO4)CCc1cc3c(cc1-2)OCO3.[Cl-] | 1.81
CCCCCCCCCCCCc1c2[n+](cc3c4c(ccc13)OCO4)CCc1cc3c(cc1-2)OCO3.[Cl-] | 1.03
N#Cc1ccc(Cc2c3[n+](cc4c5c(ccc24)OCO5)CCc2cc4c(cc2-3)OCO4)cc1.[Cl-] | > 10
O=[N+]([O-])c1ccc(Cc2c3[n+](cc4c5c(ccc24)OCO5)CCc2cc4c(cc2-3)OCO4)cc1.[Cl-] | > 10
COc1ccc(Cc2c3[n+](cc4c5c(ccc24)OCO5)CCc2cc4c(cc2-3)OCO4)cc1.[Cl-] | > 10
Cc1ccc(Cc2c3[n+](cc4c5c(ccc24)OCO5)CCc2cc4c(cc2-3)OCO4)cc1.[Cl-] | > 10
[Cl-].c1ccc2cc(Cc3c4[n+](cc5c6c(ccc35)OCO6)CCc3cc5c(cc3-4)OCO5)ccc2c1 | > 10
CCOC(=O)c1c2[n+](cc3c4c(ccc13)OCO4)CCc1cc3c(cc1-2)OCO3.[Cl-] | > 10
CCOC(=O)Cc1c2[n+](cc3c4c(ccc13)OCO4)CCc1cc3c(cc1-2)OCO3.[Cl-] | > 10
[Cl-].c1c2c(cc3c1OCO3)-c1cc3ccc4c(c3c[n+]1CC2)OCO4 [COPTISINE CHLORIDE] | 5.59
O=c1[nH]cc(F)c(=O)[nH]1 [FLUOROURACIL] | 3.54

System: not listed separately
Assay: Cytotoxicity against human Bel7402 cells assessed as growth inhibition rate after 96 hrs by MTT assay
Format: functional, cell-based
Conditions: Bel-7402, 96 h

SMILES | IC50 [µM]
CCCCCCCCCCc1c2[n+](cc3c4c(ccc13)OCO4)CCc1cc3c(cc1-2)OCO3.[Cl-] | 1.43
CCCCCCCCCCCCc1c2[n+](cc3c4c(ccc13)OCO4)CCc1cc3c(cc1-2)OCO3.[Cl-] | 1.32
N#Cc1ccc(Cc2c3[n+](cc4c5c(ccc24)OCO5)CCc2cc4c(cc2-3)OCO4)cc1.[Cl-] | > 10
O=[N+]([O-])c1ccc(Cc2c3[n+](cc4c5c(ccc24)OCO5)CCc2cc4c(cc2-3)OCO4)cc1.[Cl-] | > 10
COc1ccc(Cc2c3[n+](cc4c5c(ccc24)OCO5)CCc2cc4c(cc2-3)OCO4)cc1.[Cl-] | > 10
Cc1ccc(Cc2c3[n+](cc4c5c(ccc24)OCO5)CCc2cc4c(cc2-3)OCO4)cc1.[Cl-] | > 10
[Cl-].c1ccc2cc(Cc3c4[n+](cc5c6c(ccc35)OCO6)CCc3cc5c(cc3-4)OCO5)ccc2c1 | > 10
CCOC(=O)c1c2[n+](cc3c4c(ccc13)OCO4)CCc1cc3c(cc1-2)OCO3.[Cl-] | > 10
CCOC(=O)Cc1c2[n+](cc3c4c(ccc13)OCO4)CCc1cc3c(cc1-2)OCO3.[Cl-] | > 10
[Cl-].c1c2c(cc3c1OCO3)-c1cc3ccc4c(c3c[n+]1CC2)OCO4 [COPTISINE CHLORIDE] | > 14.1
O=c1[nH]cc(F)c(=O)[nH]1 [FLUOROURACIL] | 2.23

System: not listed separately
Assay: Cytotoxicity against human BGC823 cells assessed as growth inhibition rate after 96 hrs by MTT assay
Format: functional, cell-based
Conditions: BGC-823, 96 h

SMILES | IC50 [µM]
N#Cc1ccc(Cc2c3[n+](cc4c5c(ccc24)OCO5)CCc2cc4c(cc2-3)OCO4)cc1.[Cl-] | > 10
O=[N+]([O-])c1ccc(Cc2c3[n+](cc4c5c(ccc24)OCO5)CCc2cc4c(cc2-3)OCO4)cc1.[Cl-] | > 10
COc1ccc(Cc2c3[n+](cc4c5c(ccc24)OCO5)CCc2cc4c(cc2-3)OCO4)cc1.[Cl-] | > 10
Cc1ccc(Cc2c3[n+](cc4c5c(ccc24)OCO5)CCc2cc4c(cc2-3)OCO4)cc1.[Cl-] | > 10
[Cl-].c1ccc2cc(Cc3c4[n+](cc5c6c(ccc35)OCO6)CCc3cc5c(cc3-4)OCO5)ccc2c1 | > 10
CCOC(=O)c1c2[n+](cc3c4c(ccc13)OCO4)CCc1cc3c(cc1-2)OCO3.[Cl-] | > 10
CCOC(=O)Cc1c2[n+](cc3c4c(ccc13)OCO4)CCc1cc3c(cc1-2)OCO3.[Cl-] | > 10
